This note sets out measurements from PMC9919513, “A Practical Approach to Bicyclic Carbamoyl Pyridones with Application to the Synthesis of HIV-1 Integrase Strand Transfer Inhibitors” (Molecules, 2023).

Each structure is given as a SMILES string.

In general, EC50 refers to the concentration at which the effect is half-maximal.

One test has as its system HIV-1 vectors bearing the S230N IN mutant. The test can be described thus: Single-round HIV-1 replication antiviral assay, S230N IN mutant. The test is classed as cell-based. Conditions: EC50 of saturated 7 over EC50 of unsaturated 6, S230N IN. From the text: To further evaluate the antiviral activities of select compounds, we determined their EC50 values against the IN mutant S230N, which has been selected in vitro against an early Merck INSTI L810,830, a prototype for naphthyridine analogs.
Human embryonic kidney cell culture cell line 293 was acquired from the American Type Culture Collection (ATCC). The human osteosarcoma cell line, HOS, was obtained from Dr. Richard Schwartz (Michigan State University, East Lansing, MI, USA) and grown in Dulbecco’s modified Eagle’s medium (Invitrogen, Carlsbad, CA, USA) supplemented with 5% (v/v) fetal bovine serum, 5% newborn calf serum, and penicillin (50 units/mL) plus streptomycin (50 µg/mL; Quality Biological, Gaithersburg, MD, USA). The transfection vector, pNLNgoMIVR-ΔLUC was made from pNLNgoMIVR-ΔEnv.HSA by removing the HSA reporter gene and replacing it with a luciferase reporter gene between the NotI and XhoI restriction sites. To produce the new IN mutant S230N used in this study, the IN open reading frame was removed from pNLNgoMIVR-ΔENV.LUC by digestion with KpnI and SalI, and the resulting fragment was inserted between the KpnI and SalI sites of pBluescript KS+. Using that construct as the wild-type template, we prepared the following HIV-1 IN mutant S230N using the QuikChange II XL site-directed mutagenesis kit (Agilent Technologies, Santa Clara, CA, USA) protocol. The following sense oligonucleotides were used with matching cognate antisense oligonucleotides (not shown) (Integrated DNA Technologies, Coralville, IA, USA) in the mutagenesis: S230N 5′-[…]-3′. The DNA sequence of the IN mutant S230N construct was verified independently by DNA sequence determination. The mutated IN coding sequences from pBluescript KS+ were then subcloned into pNLNgoMIVR-ΔEnv.LUC (between the KpnI and SalI sites) to produce mutant HIV-1 constructs, which were also checked by DNA sequencing. […]. On the day prior to transfection, 293 cells were plated on 100 mm diameter dishes at a density of 1.5 × 10^6 cells per plate. Next, 293 cells were transfected with 16 µg of pNLNgoMIVR^-ΔLUC and 4 µg of pHCMV-g (obtained from Dr. Jane Burns, University of California, San Diego) using the calcium phosphate method. At approximately 6 h after the calcium phosphate precipitate was added, 293 cells were washed twice with phosphate-buffered saline (PBS) and incubated with fresh media for 48 h. The virus-containing supernatants were then harvested, clarified by low-speed centrifugation, filtrated, and diluted for preparation in antiviral infection assays. On the day prior to the screen, HOS cells were seeded in a 96-well luminescence cell culture plate at a density of 4000 cells in 100 µL per well. On the day of the screen for cellular cytotoxicity determination, cells were treated with compounds from a concentration range of 250 µM to 0.05 µM and then incubated at 37 °C for 48 h. On the day of the screen for antiviral activity infection assays, cells were treated with compounds from a concentration range of 5 µM to 0.0001 µM using 11 serial dilutions and then incubated at 37 °C for 3 h. After compound incorporation and activation in the cell, 100 µL of virus-stock (WT or mutant) diluted to achieve a luciferase signal between 0.2 and 1.5 Relative Luciferase Units (RLUs) was added to each well and further incubated at 37 °C for 48 h. Cellular cytotoxicity was measured by using the ATP Lite Luminescence detection system and monitored by adding 50 µL of cell lysis buffer from the Luminescence ATP detection assay to each well followed by mixing at 700 rpm at room temperature for 5 min using a compact thermomixer. […]
For `O=C(NCc1ccc(F)cc1F)c1cn2c(c(O)c1=O)C(=O)N(CCCCO)CC2` [Compound 7e, N-(2,4-Difluorobenzyl)-9-hydroxy-2-(4-hydroxybutyl)-1,8-dioxo-1,3,4,8-tetrahydro-2H-pyrido [1,2-a]pyrazine-7-carboxamide], the “Ratio of the antiviral potencies after and before hydrogenation (S230N)” value is 3.28.

Staying with this test, now noted: Human immunodeficiency virus 1, HOS, 48 h, read-out: EC50, antiviral potency, S230N IN mutant.
As for `O=C(NCc1ccc(F)cc1F)c1cn2c(c(O)c1=O)C(=O)N(CCCCO)CC2` [Compound 7e, N-(2,4-Difluorobenzyl)-9-hydroxy-2-(4-hydroxybutyl)-1,8-dioxo-1,3,4,8-tetrahydro-2H-pyrido [1,2-a]pyrazine-7-carboxamide], the EC50 is 101 nM.

For `O=C(NCc1ccc(F)cc1F)c1cn2ccn(CCCCO)c(=O)c2c(O)c1=O` [Compound 6e, N-(2,4-Difluorobenzyl)-9-hydroxy-2-(4-hydroxybutyl)-1,8-dioxo-1,8-dihydro-2H-pyrido [1,2-a]pyrazine-7-carboxamide], the EC50 is 30.7 nM.

`O=C(NCc1ccc(F)cc1F)c1cn2c(c(O)c1=O)C(=O)N(CCCCCCO)CC2` [Compound 7c, N-(2,4-Difluorobenzyl)-9-hydroxy-2-(6-hydroxyhexyl)-1,8-dioxo-1,3,4,8-tetrahydro-2H-pyrido [1,2-a]pyrazine-7-carboxamide]: the EC50 stood at 38 nM.

In the case of `O=C(NCc1ccc(F)cc1F)c1cn2ccn(CCCCCO)c(=O)c2c(O)c1=O` [Compound 6d, N-(2,4-Difluorobenzyl)-9-hydroxy-2-(5-hydroxypentyl)-1,8-dioxo-1,8-dihydro-2H-pyrido [1,2-a]pyrazine-7-carboxamide], the 50% effective concentration (EC50) was found to be 15.4 nM.

For `O=C(NCc1ccc(F)cc1F)c1cn2ccn(CCCCCCO)c(=O)c2c(O)c1=O` [Compound 6c, N-(2,4-Difluorobenzyl)-9-hydroxy-2-(6-hydroxyhexyl)-1,8-dioxo-1,8-dihydro-2H-pyrido [1,2-a]pyrazine-7-carboxamide], the half-maximal effective concentration (EC50) worked out at 9.3 nM.
